Data as given in patent US6147097A, “Imidazole derivatives as anti-HIV agents” (Shionogi & Co., Ltd., priority 1994, dated 2000).
In brackets after ≈: the same amount, converted by molar mass. Structures can show the parent of a compound that is named as a salt. Where two headings read alike, the source gives them in different places.

Columns and labels:
HIV (HTLV-IIIB strain) = test: microbe, parasite or virus in culture; type: cell-based; conditions: Human immunodeficiency virus 1, IIIB, MT4, 120 h
Procedure: The anti-HIV activity of each of the compounds produced in Examples was assayed by the following procedures. […] On the other hand, the test compound was diluted with the above culture medium to predetermined concentrations and distributed in 50 μl aliquots into a 96-well microtiter plate. Then, d suspension of MT-4 cells was added in 100 μl aliquots (3.5×10^4 cells per well) and then the above HIV-containing supernatant diluted with the above culture medium was added, 50 μl (60 pfu (plaque forming units)) per well. (2) The plate was incubated in a CO2 incubator at 37° C. for 5 days. Then, 30 μl/well of 3-(4,5-dimethyl thiazol-2-yl)-2,5-diphenyltetrazolium bromide (MTT) (5 mg/ml PBS) was added and the incubation was further continued for 1 hour. The surviving cells reducing MTT yield precipitation of formazan. Therefore, 150 μl portions of the culture supernatant were removed from all wells and, instead, 150 μl of a solution (10% Triton X-100 and 0.4% (v/v) HCl-added isopropyl alcohol) was added. The plate was shaken on a plate mixer to dissolve the formazan.

[1] = cytotoxicity in MT-4 cells (MTT, culture medium in place of HIV); type: cell-based; conditions: human
Procedure: The anti-HIV activity of each of the compounds produced in Examples was assayed by the following procedures. (1) Human T cell line MOLT-4 clone 8 persistently infected by HIV (HTLV-IIIB strain) was cultured in an RPMI-1640 medium supplemented with 10% fetal calf serum, the culture supernatant was filtered, and the titer of virus was determined; the culture supernatant was stored at -80° C. On the other hand, the test compound was diluted with the above culture medium to predetermined concentrations and distributed in 50 μl aliquots into a 96-well microtiter plate. Then, d suspension of MT-4 cells was added in 100 μl aliquots (3.5×10^4 cells per well) and then the above HIV-containing supernatant diluted with the above culture medium was added, 50 μl (60 pfu (plaque forming units)) per well. (2) The plate was incubated in a CO2 incubator at 37° C. for 5 days. Then, 30 μl/well of 3-(4,5-dimethyl thiazol-2-yl)-2,5-diphenyltetrazolium bromide (MTT) (5 mg/ml PBS) was added and the incubation was further continued for 1 hour. The surviving cells reducing MTT yield precipitation of formazan. Therefore, 150 μl portions of the culture supernatant were removed from all wells and, instead, 150 μl of a solution (10% Triton X-100 and 0.4% (v/v) HCl-added isopropyl alcohol) was added. The plate was shaken on a plate mixer to dissolve the formazan. The OD of formazan was measured with a microreader at 560 nm arid 690 nm (reference wavelength) and the result was compared with that of control.
The cytotoxicity of each of the compounds produced in Examples was assayed. In place of the HIV-containing supernatant (the virus suspension) in (1) in Test Example 1, 50 μl of the culture medium was added to each well, and the cytotoxicity was determined in the same manner as that for (2) in Test Example 1.

[2] = biological target: T1, purified recombinant HIV-1 reverse transcriptase (Human immunodeficiency virus type 1 group M subtype B, UniProt P04585); test: reverse transcriptase inhibition, poly(rA)/(dT) template primer, [3H]dTTP uptake; type: biochemical
T1 construct: purified recombinant HIV-1 reverse transcriptase; made in house; host or cells: Escherichia coli
Procedure: The reverse transcriptase activity of each of the compounds synthesized in Examples was assayed by the following procedures.
Using the purified recombinant HIV-1 reverse transcriptase RT, E.C. 2.7.7.49) obtained by expression in Escherichia Coli, a 96-well plate assay system was established for assaying a large number of samples. The RT inhibitory activity was determined as follows. To 11 μl of a solution of the test inhibitor in water or MSO was added 100 μl of a reaction mixture (0.1 unit/100 μl RT, 50 mM Tris-HCl pH 8.3, 150 mM KCl, 10 mM MgCl2, 3 mM dithiothreitol, 0.1% Nonidet P-40, 10 μg/ml. poly(rA) and 10 μg/ml (dT)12-1.8 as template and primer, and 4 μM dTTP, 1 μCi/100 μl [^3 H]dTTP as substrate) and the mixture was incubated at 37° C. for 1 hour and, then, immediately cooled on ice. Using a cell harvester, the reaction mixture was transferred to a DEAE-filter mat (LKB-Pharmacia). Then, using the wash line of the cell harvester, the cells were washed twice with 5% Na2 HPO4 /H2 O and once with water and dried at 95° C. for 15 minutes. […] The inhibitory activity was expressed in percent inhibition relative to the uptake on water or DMSO control.

[3] = MT-4 cells, 60 pfu HIV per well, 37° C., 5 days, MTT, Tables 1 and 2, read-out: EC50
[4] = MT-4 cells, no virus, 37° C., 5 days, MTT, Table 3, read-out: CC50

Compound | CC50 at 120 h [1, 4] [µg/mL] | IC50 [2] [µM] | also measured
CC(C)c1nc(CO)n(C)c1S(=O)(=O)c1cc(Cl)cc(Cl)c1 [Compound I-109, [5-(3,5-dichlorophenylsulfonyl)-4-isopropyl-1-methyl-1H-imidazol-2-yl]methanol] | > 100 | – | EC50 (HIV (HTLV-IIIB strain); [3]): 500 ng/mL (≈ 1.38 µM)
CC(C)c1nc(CN)n(C)c1[S+]([O-])c1cc(Cl)cc(Cl)c1 (stereo not drawn) [Compound I-110, 2-aminomethyl-5-(3,5-dichlorophenylsulfinyl)-4-isopropyl-1-methyl-1H-imidazole] | 10 to 100 (≈ 28.9 to 289 µM) | – | EC50 (HIV (HTLV-IIIB strain); [3]): 10000 ng/mL (≈ 28.9 µM)
CC(C)c1nc(COC(N)=O)n(Cc2ccc[nH]c2=O)c1Sc1cc(Cl)cc(Cl)c1 [Compound I-132, 2-carbamoyloxymethyl-5-(3,5-dichlorophenylthio)-1-(2-oxo-1,2-dihydro-pyridin-3-yl)methyl-4-isopropyl-1H-imidazole] | – | 1.39 | CC50 at 120 h ([1]; mt-4 cells): 12.5 to 25 µg/mL (≈ 26.7 to 53.5 µM)
Cc1cc(C)cc(S(=O)(=O)c2c(C(C)C)nc(CO)n2C)c1 [Compound I-107, [5-(3,5-dimethylphenylsulfonyl)-4-isopropyl-1-methyl-1H-imidazol-2-yl]methanol] | > 100 | 194 | –
CC(=O)NCc1nc(C(C)C)c(Sc2cc(Cl)cc(Cl)c2)n1C [Compound I-83] | 6.3 to 12.5 (≈ 16.9 to 33.6 µM) | 218 | –
CC(C)c1nc(CO)[nH]c1[S+]([O-])c1cc(Cl)cc(Cl)c1 (stereo not drawn) [Compound I-113, [5-(3,5-dichlorophenylsulfinyl)-4-isopropyl-1H-imidazol-2-yl]methanol] | 100 (≈ 300 µM) | – | EC50 (HIV (HTLV-IIIB strain); [3]): 100000 ng/mL (≈ 300 µM)
CC(C)c1nc(COC(N)=O)n(Cc2ccccc2)c1Sc1cccc(Cl)c1 [Compound I-46, 1-benzyl-2-carbamoyloxymethyl-5-(3-chlorophenylthio)-4-isopropyl-1H-imidazole] | 12.5 to 25 (≈ 30.1 to 60.1 µM) | 1.92 | –
CCn1c(COC(N)=O)nc(C(C)C)c1Sc1cccc([N+](=O)[O-])c1 [Compound I-49, 2-carbamoyloxymethyl-1-ethyl-4-isopropyl-5-(3-nitrophenylthio)-1H-imidazole] | 25 (≈ 68.6 µM) | – | EC50 (HIV (HTLV-IIIB strain)): 4 to 8 ng/mL (≈ 0.011 to 0.022 µM)
CC(=O)OCCOCc1nc(Sc2cc(Cl)cc(Cl)c2)c(C(C)C)n1C [Compound I-64, 2-[4-(3,5-dichlorophenylthio)-5-isopropyl-1-methyl-1H-imidazol-2-yl]methoxy} ethyl acetate] | 12.5 to 25 | > 240 | –
CC(C)c1nc(CN)n(C)c1S(=O)(=O)c1cc(Cl)cc(Cl)c1 [Compound I-111, 2-aminomethyl-5-(3,5-dichlorophenylsulfonyl)-4-isopropyl-1-methyl-1H-imidazole] | 1 to 10 (≈ 2.76 to 27.6 µM) | – | –
CC(C)c1nc(CO)n(Cc2cccc(N)c2)c1Sc1cc(Cl)cc(Cl)c1 [Compound I-118, 1-(m-aminobenzyl)-5-(3,5-dichlorophenylthio)-2-hydroxymethyl-4-isopropyl-1H-imidazole] | – | 2.13 | CC50 at 120 h ([1]; mt-4 cells): 12.5 to 25 µg/mL (≈ 29.6 to 59.2 µM)
[5-(3,5-dichlorophenylthio)-1-(1-fluoroethyl)-4-isopropyl-1H-imidazol-2-yl]methanol [Compound I-35] | – | – | RT IC50 ([2]; pH 8.3, 37° C., 1 hour, Tables 5 and 6): 0.69 µg/mL
CC(C)c1nc(COC(N)=O)n(Cc2ccncc2)c1Sc1cc(Cl)cc(Cl)c1 [I-93', 2-carbamoyloxymethyl-5-(3,5-dichlorophenylthio)-4-isopropyl-1-(pyridin-4-yl)methyl-1H-imidazole] | 10 to 100 (≈ 22.2 to 222 µM) | – | EC50 (HIV (HTLV-IIIB strain)): 0.06 to 0.13 ng/mL (≈ 0.000133 to 0.000288 µM)
CC(=O)Nc1ccc(Cn2c(CO)nc(C(C)C)c2Sc2cc(Cl)cc(Cl)c2)cc1 [Compound I-117, 1-(p-N-acetylaminobenzyl)-5-(3,5-dichlorophenylthio)-2-hydroxymethyl-4-isopropyl-1H-imidazole] | – | 8.18 | CC50 at 120 h ([1]; mt-4 cells): 50 µg/mL (≈ 108 µM)
CC(C)c1nc(CO)n(CC(=O)c2ccccc2)c1Sc1cc(Cl)cc(Cl)c1 [Compound I-31, [1-benzoylmethyl-5-(3,5-dichlorophenylthio)-4-isopropyl-1H-imidazol-2-yl]methanol] | 100 (≈ 230 µM) | – | EC50 (HIV (HTLV-IIIB strain); [3]): 60 ng/mL (≈ 0.138 µM)
CC(C)c1c(Sc2cc(Cl)cc(Cl)c2)nc(COCCOC(N)=O)n1C [Compound I-65] | 12.5 to 25 (≈ 29.9 to 59.8 µM) | > 239 | –
CC(C)c1nc(CO)n(C)c1[S+]([O-])c1cc(Cl)cc(Cl)c1 (stereo not drawn) [Compound I-108, [5-(3,5-dichlorophenylsulfinyl)-4-isopropyl-1-methyl-1H-imidazol-2yl]methanol] | 10 to 100 (≈ 28.8 to 288 µM) | – | EC50 (HIV (HTLV-IIIB strain); [3]): 1000 ng/mL (≈ 2.88 µM)
CC(C)c1nc(COC(N)=O)n(Cc2ccccn2)c1Sc1cc(Cl)cc(Cl)c1 [Compound I-93] | 12.5 (≈ 27.7 µM) | – | EC50 (HIV (HTLV-IIIB strain)): 0.5 to 1 ng/mL (≈ 0.00111 to 0.00222 µM)
CC(C)c1nc(CNC(=O)C(F)(F)F)n(C)c1[S+]([O-])c1cc(Cl)cc(Cl)c1 (stereo not drawn) [Compound I-112, 5-(3,5-dichlorophenylsulfinyl)-4-isopropyl-1-methyl-2-trifluoroacetylaminomethyl-1H-imidazole] | > 100 | – | EC50 (HIV (HTLV-IIIB strain); [3]): > 100000 ng/mL
Cc1ccc(S(=O)(=O)NCc2nc(C(C)C)c(Sc3cc(Cl)cc(Cl)c3)n2C)cc1 [Compound I-88, 5-(3,5-dichlorophenylthio)-4-isopropyl-1-methyl-2-p-toluenesulfonylaminomethyl-1H-imidazole] | 1 to 10 (≈ 2.06 to 20.6 µM) | > 206 | –
CC(C)c1nc(CN)n(CF)c1Sc1cc(Cl)cc(Cl)c1 [Compound I-77, 2-aminomethyl-5-(3,5-dichlorophenylthio)-1-fluoromethyl-4-isopropylimidazole] | 10 (≈ 28.7 µM) | 3.73 | –
CC(C)c1nc(CCOC(N)=O)n(Cc2ccccc2N)c1Sc1cc(Cl)cc(Cl)c1 [Compound I-144, l-(o-aminobenzyl)-2-(2-carbamoyloxyethyl)-5-(3,5-dichlorophenylthio)-4-isopropyl-1H-imidazole] | – | > 209 | CC50 at 120 h ([1]; mt-4 cells): 6.3 to 12.5 µg/mL (≈ 13.1 to 26.1 µM)
CCCCCCCCCCCCn1c(CO)nc(C(C)C)c1Sc1cc(Cl)cc(Cl)c1 [Compound I-18, [5-(3,5-dichlorophenylthio)-1-dodecyl-4-isopropyl-1H-imidazol-2-yl]methanol] | 10 to 100 (≈ 20.6 to 206 µM) | > 206 | –
CC(C)c1nc(CO)n(Cc2ccc(C(C)(C)C)cc2)c1Sc1cc(Cl)cc(Cl)c1 [Compound I-116, 1-(p-t-butylbenzyl)-5-(3,5-dichlorophenylthio)-2-hydroxymethyl-4-isopropyl-1H-imidazole hydrochloride] | – | > 200 | CC50 at 120 h ([1]; mt-4 cells): 25 µg/mL
CCCn1c(COC(N)=O)nc(C(C)C)c1Sc1cccc([N+](=O)[O-])c1 [Compound I-50, 2-carbamoyloxymethyl-4-isopropyl-5-(3-nitrophenylthio)-1-n-propyl-1H-imidazole] | > 100 | – | EC50 (HIV (HTLV-IIIB strain); [3]): 8 ng/mL (≈ 0.0211 µM)
CC(C)c1nc(CO)[nH]c1S(=O)(=O)c1cc(Cl)cc(Cl)c1 [Compound I-114, [5-(3,5-dichlorophenylsulfonyl)-4-isopropyl-1H-imidazol-2-yl]methanol] | 10 to 100 (≈ 28.6 to 286 µM) | – | EC50 (HIV (HTLV-IIIB strain); [3]): 10000 ng/mL (≈ 28.6 µM)
CC(C)c1nc(COC(N)=O)n(C)c1[S+]([O-])c1cc(Cl)cc(Cl)c1 (stereo not drawn) [Compound I-115, 2-carbamoyloxymethyl-5-(3,5-dichlorophenylsulfinyl)-4-isopropyl-1-methyl-1H-imidazole] | 10 to 100 (≈ 25.6 to 256 µM) | – | –
